Experimental findings from ChEMBL document CHEMBL3860055, “Design, synthesis and in vitro evaluation of amidoximes as histone deacetylase inhibitors for cancer therapy” (Bioorg Med Chem Lett, 2016) are described below.

For orientation: IC50 means the concentration that inhibits the measured activity by half. Usually EC50 stands for the concentration at which the effect is half-maximal. High values mean a less potent agent, low ones a more potent agent.

For experiment [1], the target named is Histone deacetylase (HDAC1 and HDAC2) (Homo sapiens, UniProt Q13547+Q92769). Description: Inhibition of HDAC1/HDAC2 in human HeLa cell nuclear extract preincubated for 20 mins followed by addition of HDAC green as substrate measured after 60 mins by fluorescence analysis. It is filed as cell-based.
The nature of experiment [2]: Antiproliferative activity against human HCT116 cells measured after 72 hrs by WST1 assay. Conditions: HCT-116, 72 h. The class given is functional, cell-based. (Formazan colour is commonly taken as a measure of viable cells.)
A short description of experiment [3]: Antiproliferative activity against human A549 cells measured after 72 hrs by WST1 assay. The conditions noted are these: A549, 72 h. The class given is functional, cell-based.
A short description of experiment [4]: Cell cycle arrest in human A549 cells assessed as accumulation at G1-phase at 26 uM measured after 24 hrs by propidium iodide staining based flow cytometric analysis (reference value: 63%). It is filed as functional. On the technique in general: A flow cytometer gives signals particle by particle.
A short description of experiment [5]: Cell cycle arrest in human A549 cells assessed as accumulation at S-phase at 26 uM measured after 24 hrs by propidium iodide staining based flow cytometric analysis (reference value: 7%). It is filed as functional.
Experiment [6] can be described thus: Cell cycle arrest in human A549 cells assessed as accumulation at G2/M-phase at 26 uM measured after 24 hrs by propidium iodide staining based flow cytometric analysis (reference value: 27%). It is filed as functional.
Experiment [7] can be described thus: Cell cycle arrest in human A549 cells assessed as accumulation at G1-phase at 157 uM measured after 24 hrs by propidium iodide staining based flow cytometric analysis (reference value: 63%). The class given is functional.
A short description of experiment [8]: Cell cycle arrest in human A549 cells assessed as accumulation at S-phase at 157 uM measured after 24 hrs by propidium iodide staining based flow cytometric analysis (reference value: 7%). It is filed as functional.
The nature of experiment [9]: Cell cycle arrest in human A549 cells assessed as accumulation at G2/M-phase at 157 uM measured after 24 hrs by propidium iodide staining based flow cytometric analysis (reference value: 27%). The class given is functional.
A short description of experiment [10]: Cell cycle arrest in human HCT116 cells assessed as accumulation at G1-phase at 26 uM measured after 24 hrs by propidium iodide staining based flow cytometric analysis (reference value: 59%). The class given is functional. The conditions noted are these: HCT-116.
Experiment [11] can be described thus: Cell cycle arrest in human HCT116 cells assessed as accumulation at S-phase at 26 uM measured after 24 hrs by propidium iodide staining based flow cytometric analysis (reference value: 8%). It is filed as functional. The conditions noted are these: HCT-116.
Experiment [12] can be described thus: Cell cycle arrest in human HCT116 cells assessed as accumulation at G2/M-phase at 26 uM measured after 24 hrs by propidium iodide staining based flow cytometric analysis (reference value: 30%). It is filed as functional. The conditions noted are these: HCT-116.
Experiment [13] in a line: Cell cycle arrest in human HCT116 cells assessed as accumulation at G1-phase at 157 uM measured after 24 hrs by propidium iodide staining based flow cytometric analysis (reference value: 59%). The class given is functional. The conditions noted are these: HCT-116.
Experiment [14] is described as follows: Cell cycle arrest in human HCT116 cells assessed as accumulation at S-phase at 157 uM measured after 24 hrs by propidium iodide staining based flow cytometric analysis (reference value: 8%). It is filed as functional. Conditions: HCT-116.
A short description of experiment [15]: Cell cycle arrest in human HCT116 cells assessed as accumulation at G2/M-phase at 157 uM measured after 24 hrs by propidium iodide staining based flow cytometric analysis (reference value: 30%). It is filed as functional. The conditions noted are these: HCT-116.
A short description of experiment [16]: Cell cycle arrest in human A549 cells assessed as accumulation at G2/M-phase measured after 24 hrs by propidium iodide staining based flow cytometric analysis. The class given is functional.

`CCCCCCNC(=O)Nc1ccc(/C(N)=N/O)cc1` yielded an IC50 in experiment [1] of 0.599 µM. Further, the EC50 in experiment [2] was 195 µM; in [3], > 1000 µM.
In the same order, the values of `N/C(=N\O)c1ccc(NC(=O)CCCNCCc2ccccc2)cc1` are 0.697 µM, 218 µM and > 1000 µM.
In the same order, the values of `N/C(=N\O)c1ccc(NC(=O)CCCCNCCc2ccccc2)cc1` are > 1 µM, 691 µM and > 1000 µM.
The matching figures for `CCCCCCNCCC(=O)Nc1ccc(/C(N)=N/O)cc1`: 0.602 µM, 193 µM and > 1000 µM.
Molecule `CCCCNCC(=O)Nc1ccc(/C(N)=N/O)cc1` gave an IC50 in experiment [1] of 0.282 µM. Also, the values for the EC50 in experiment [2] and in [3] were 83 µM and 395 µM, respectively.
Turning to `N/C(=N\O)c1ccc(NC(=O)NCCc2ccccc2)cc1`, in experiment [1], the IC50 is 0.304 µM. Moreover, the EC50 worked out at 91 µM in [2] and 463 µM in experiment [3].
In the same order, the values of `CCCCNCCC(=O)Nc1ccc(/C(N)=N/O)cc1` are 0.528 µM, 153 µM and 881 µM.
For `CCCCNCCCCC(=O)Nc1ccc(/C(N)=N/O)cc1`, the IC50 in experiment [1] was > 1 µM. The results for the EC50 in [2] and in experiment [3] were 516 µM and > 1000 µM, respectively.
For the molecule `N/C(=N\O)c1ccc(NC(=O)CCNCCc2ccccc2)cc1`, the IC50 in experiment [1] was found to be 0.273 µM. For the same molecule, the EC50 is 69 µM in experiment [2] and 330 µM in [3].
`O=C(NCCc1ccccc1)Nc1ccc(C(=O)NO)cc1` came in with an IC50 in experiment [1] of 0.582 µM. Besides, the EC50 is 175 µM in [2] and > 1000 µM in [3].
`CCCCCCNCCCCC(=O)Nc1ccc(/C(N)=N/O)cc1`: in experiment [1], the IC50 was > 1 µM. Also, the EC50 in experiment [2] and in experiment [3] was > 1000 µM throughout.
Molecule `CCCCCCNCC(=O)Nc1ccc(/C(N)=N/O)cc1` registered an IC50 in experiment [1] of 0.381 µM. In addition, the values for the EC50 in [2] and in [3] were 124 µM and 658 µM, respectively.
In the same order, the values of `CCCCCCNCCCC(=O)Nc1ccc(/C(N)=N/O)cc1` are > 1 µM, 312 µM and > 1000 µM.
The matching figures for `CCCCNCCCC(=O)Nc1ccc(/C(N)=N/O)cc1`: 0.723 µM, 267 µM and > 1000 µM.
Molecule `N/C(=N\O)c1ccc(NC(=O)CNCCc2ccccc2)cc1` displayed an IC50 in experiment [1] of 0.093 µM. For the same molecule, the EC50 in [2] was determined as 26 µM; in experiment [3], 157 µM. The Activity turned out to be 54% in [4]; 7% in [5]; 36% in [6]; 22% in experiment [7]; 9% in experiment [8]; 68% in experiment [9]. Further, the Activity in experiment [10] was found to be 31%; in experiment [11], 7%; in experiment [12], 58%; in experiment [13] it was 3%; in experiment [14], 5%; in [15], 87%. Further, in experiment [16], the Activity result is “Dose-dependent effect”.
Regarding `CCCCNC(=O)Nc1ccc(/C(N)=N/O)cc1`, the IC50 in [1] was 0.591 µM. The results for the EC50 in experiment [2] and in [3] were 186 µM and > 1000 µM, respectively.
